From the NIST ThermoML archive (doi:10.1007/s10765-006-0093-7)

Conditions: Gas, Hot wire method

[Ar] [argon]
Conditions | thermal conductivity [W/m/K]
304.8 K, 1020 kPa | 0.01821
304.8 K, 1560 kPa | 0.01835
304.8 K, 2320 kPa | 0.01869
304.8 K, 2590 kPa | 0.01877
304.8 K, 4470 kPa | 0.01959
329 K, 1200 kPa | 0.0193
329 K, 1270 kPa | 0.01953
329 K, 1960 kPa | 0.01978
329 K, 2340 kPa | 0.01995
329 K, 3030 kPa | 0.02016
329 K, 3630 kPa | 0.0203
329 K, 5980 kPa | 0.02118
329 K, 7320 kPa | 0.02192
360.05 K, 1240 kPa | 0.02086
360.05 K, 1560 kPa | 0.02098
360.05 K, 1640 kPa | 0.02104
360.05 K, 2240 kPa | 0.02129
360.05 K, 3200 kPa | 0.02158
360.05 K, 4160 kPa | 0.02192
360.05 K, 8720 kPa | 0.0239
389.3 K, 1390 kPa | 0.02227
389.3 K, 2140 kPa | 0.02255
389.3 K, 2780 kPa | 0.02276
389.3 K, 3330 kPa | 0.02288
389.3 K, 3560 kPa | 0.02304
389.3 K, 4190 kPa | 0.02323
389.3 K, 5350 kPa | 0.02353
389.3 K, 6050 kPa | 0.02385
389.3 K, 6660 kPa | 0.02405
389.3 K, 7500 kPa | 0.0243
389.3 K, 8260 kPa | 0.02466
389.3 K, 8500 kPa | 0.02463
417.5 K, 1210 kPa | 0.02336
417.5 K, 1400 kPa | 0.02343
417.5 K, 2110 kPa | 0.02369
417.5 K, 2740 kPa | 0.02395
417.5 K, 3420 kPa | 0.02415
417.5 K, 4130 kPa | 0.02432
417.5 K, 4800 kPa | 0.02459
417.5 K, 5470 kPa | 0.02478
417.5 K, 6180 kPa | 0.02504
417.5 K, 6890 kPa | 0.02521
417.5 K, 7580 kPa | 0.0256
417.5 K, 8270 kPa | 0.02577
475.7 K, 1090 kPa | 0.02562
475.7 K, 1410 kPa | 0.02575
475.7 K, 2120 kPa | 0.02608
475.7 K, 2790 kPa | 0.02636
475.7 K, 3520 kPa | 0.02652
475.7 K, 4250 kPa | 0.02683
475.7 K, 5010 kPa | 0.02692
475.7 K, 6100 kPa | 0.02742
475.7 K, 7980 kPa | 0.02789
